Results reported in ChEMBL document CHEMBL3885861, “Open TG-GATES”.

Species: Rattus norvegicus
Assay: Open TG-GATES - Regimen: Single
Type: toxicity, organism-based, Sprague-Dawley
Parameters: regimen Single, gender Male, age 6 weeks
Settings: in vivo, po, 100 mg/kg, route gavage, dose level Low; for APTT / Bas / Eos / Fbg / Hb / Ht / Lym / MCH / MCHC / MCV / Mono / Neu / PT / Plat / RBC / Ret / WBC: tissue Blood; for KIDNEY_L / KIDNEY_R / KIDNEY_TOTAL: tissue Kidney; for LIVER: tissue Liver; for A/G / ALP / ALT / AST / BUN / CRE / Ca / Cl / DBIL / GLC / IP / K / LDH / Na / PL / RALB / TBIL / TC / TG / TP / gamma-GTP: tissue Plasma

SMILES: CN/C(=N/CCSCc1nc[nH]c1C)NC#N [CIMETIDINE]
- TERMINAL_BW (3 h): 214.5 g
- APTT (3 h): 18.3 s
- Bas (3 h): 0%
- Eos (3 h): 1%
- Fbg (3 h): 220.4 mg/dL
- Hb (3 h): 13.1 g/dL
- Ht (3 h): 38.2%
- Lym (3 h): 78.6%
- MCH (3 h): 21.9 pg
- MCHC (3 h): 34.2%
- MCV (3 h): 64.1 fL
- Mono (3 h): 2.8%
- Neu (3 h): 16.8%
- PT (3 h): 12.8 s
- Plat (3 h): 127.8 x10_4/uL
- RBC (3 h): 596.2 x10_4/ul
- Ret (3 h): 8.3%
- WBC (3 h): 109.3 x10_2/uL
- KIDNEY_L (3 h): 1 g
- KIDNEY_R (3 h): 1 g
- KIDNEY_TOTAL (3 h): 2 g
- LIVER (3 h): 10 g
- A/G (3 h): 1.7
- ALP (3 h): 1167.2 IU/L
- ALT (3 h): 39.4 IU/L
- AST (3 h): 70.2 IU/L
- BUN (3 h): 9.6 mg/dL
- CRE (3 h): 0.4 mg/dL
- Ca (3 h): 10.6 mg/dL
- Cl (3 h): 102.6 meq/L
- DBIL (3 h): 0.072 mg/dL
- GLC (3 h): 195 mg/dL
- IP (3 h): 9.5 mg/dL
- K (3 h): 4 meq/L
- LDH (3 h): 154.4 IU/L
- Na (3 h): 140.6 meq/L
- PL (3 h): 140.6 mg/dL
- RALB (3 h): 3.4 g/dL
- TBIL (3 h): 0.1 mg/dL
- TC (3 h): 75.2 mg/dL
- TG (3 h): 47.4 mg/dL
- TP (3 h): 5.5 g/dL
- gamma-GTP (3 h): 0.6 IU/L
- TERMINAL_BW (6 h): 209.9 g
- APTT (6 h): 18.8 s
- Bas (6 h): 0%
- Eos (6 h): 1%
- Fbg (6 h): 216.8 mg/dL
- Hb (6 h): 13.2 g/dL
- Ht (6 h): 38%
- Lym (6 h): 77.6%
- MCH (6 h): 22.2 pg
- MCHC (6 h): 34.8%
- MCV (6 h): 63.7 fL
- Mono (6 h): 2.8%
- Neu (6 h): 17.6%
- PT (6 h): 13.1 s
- Plat (6 h): 135.7 x10_4/uL
- RBC (6 h): 596.8 x10_4/ul
- Ret (6 h): 7.8%
- WBC (6 h): 98.4 x10_2/uL
- KIDNEY_L (6 h): 1 g
- KIDNEY_R (6 h): 1 g
- KIDNEY_TOTAL (6 h): 1.9 g
- LIVER (6 h): 9.7 g
- A/G (6 h): 1.6
- ALP (6 h): 885 IU/L
- ALT (6 h): 34.4 IU/L
- AST (6 h): 64 IU/L
- BUN (6 h): 9.6 mg/dL
- CRE (6 h): 0.4 mg/dL
- Ca (6 h): 10.6 mg/dL
- Cl (6 h): 102.4 meq/L
- DBIL (6 h): 0.07 mg/dL
- GLC (6 h): 194.6 mg/dL
- IP (6 h): 9.6 mg/dL
- K (6 h): 3.7 meq/L
- LDH (6 h): 180 IU/L
- Na (6 h): 141.4 meq/L
- PL (6 h): 138 mg/dL
- RALB (6 h): 3.4 g/dL
- TBIL (6 h): 0.1 mg/dL
- TC (6 h): 70.6 mg/dL
- TG (6 h): 61.4 mg/dL
- TP (6 h): 5.5 g/dL
- gamma-GTP (6 h): 1.8 IU/L
- TERMINAL_BW (9 h): 209.3 g
- APTT (9 h): 20.3 s
- Bas (9 h): 0%
- Eos (9 h): 1%
- Fbg (9 h): 246 mg/dL
- Hb (9 h): 12.9 g/dL
- Ht (9 h): 36.9%
- Lym (9 h): 74%
- MCH (9 h): 22.4 pg
- MCHC (9 h): 34.9%
- MCV (9 h): 64.3 fL
- Mono (9 h): 2.4%
- Neu (9 h): 21%
- PT (9 h): 13.7 s
- Plat (9 h): 128.2 x10_4/uL
- RBC (9 h): 575.2 x10_4/ul
- Ret (9 h): 8.7%
- WBC (9 h): 88 x10_2/uL
- KIDNEY_L (9 h): 1 g
- KIDNEY_R (9 h): 1 g
- KIDNEY_TOTAL (9 h): 1.9 g
- LIVER (9 h): 9.2 g
- A/G (9 h): 1.6
- ALP (9 h): 890.8 IU/L
- ALT (9 h): 31.4 IU/L
- AST (9 h): 62 IU/L
- BUN (9 h): 11.6 mg/dL
- CRE (9 h): 0.3 mg/dL
- Ca (9 h): 10.5 mg/dL
- Cl (9 h): 103.4 meq/L
- DBIL (9 h): 0.076 mg/dL
- GLC (9 h): 194.4 mg/dL
- IP (9 h): 10 mg/dL
- K (9 h): 3.9 meq/L
- LDH (9 h): 137.4 IU/L
- Na (9 h): 141.4 meq/L
- PL (9 h): 135 mg/dL
- RALB (9 h): 3.4 g/dL
- TBIL (9 h): 0.1 mg/dL
- TC (9 h): 74.4 mg/dL
- TG (9 h): 42.8 mg/dL
- TP (9 h): 5.5 g/dL
- gamma-GTP (9 h): 1.2 IU/L
- TERMINAL_BW (24 h): 225.6 g
- APTT (24 h): 19.4 s
- Bas (24 h): 0%
- Eos (24 h): 1%
- Fbg (24 h): 227.2 mg/dL
- Hb (24 h): 12.7 g/dL
- Ht (24 h): 37.8%
- Lym (24 h): 79.8%
- MCH (24 h): 21.5 pg
- MCHC (24 h): 33.7%
- MCV (24 h): 63.7 fL
- Mono (24 h): 3.2%
- Neu (24 h): 14.8%
- PT (24 h): 12.8 s
- Plat (24 h): 135 x10_4/uL
- RBC (24 h): 593.4 x10_4/ul
- Ret (24 h): 7.2%
- WBC (24 h): 109.1 x10_2/uL
- KIDNEY_L (24 h): 1 g
- KIDNEY_R (24 h): 1.1 g
- KIDNEY_TOTAL (24 h): 2.1 g
- LIVER (24 h): 11.2 g
- A/G (24 h): 1.7
- ALP (24 h): 1060 IU/L
- ALT (24 h): 35.2 IU/L
- AST (24 h): 64.4 IU/L
- BUN (24 h): 15.8 mg/dL
- CRE (24 h): 0.4 mg/dL
- Ca (24 h): 10.8 mg/dL
- Cl (24 h): 102.2 meq/L
- DBIL (24 h): 0.1 mg/dL
- GLC (24 h): 199.4 mg/dL
- IP (24 h): 6.9 mg/dL
- K (24 h): 4.2 meq/L
- LDH (24 h): 155.6 IU/L
- Na (24 h): 140 meq/L
- PL (24 h): 143.8 mg/dL
- RALB (24 h): 3.4 g/dL
- TBIL (24 h): 0.2 mg/dL
- TC (24 h): 73.2 mg/dL
- TG (24 h): 98.8 mg/dL
- TP (24 h): 5.5 g/dL
- gamma-GTP (24 h): 1.6 IU/L
